The structures appear in SMILES notation.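 Five concentrations, 48 hours, 96-well plates. At the GI50, growth is halved. TGI marks complete inhibition of growth.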

Some test systems named below: BT-549 breast; MDA-MB-231 breast; SF-539 CNS; RPMI-8226 leukemia; HOP-92 NSCLC; OVCAR-8 ovarian; SNB-19 CNS; UACC-257 melanoma; SK-MEL-28 melanoma; KM12 colon.
Holding throughout (assay): NCI anticancer screen, dose series, 48 h

On to `CSC1=Nc2c(c(C)c(-c3ccccc3)n2COC(CO)CO)C2=NC(=O)CN12`, for which the GI50 with BT-549 breast, with MDA-MB-231 breast, in the assay on SF-539 CNS, in the assay with RPMI-8226 leukemia, in the assay on HOP-92 NSCLC and in the assay on OVCAR-8 ovarian was over 100 µM throughout. Also, the GI50 in the assay with SNB-19 CNS, in the assay on UACC-257 melanoma, with SK-MEL-28 melanoma and in the assay with KM12 colon was over 100 µM each time. Moreover, the TGI in the assay with BT-549 breast, in the assay on MDA-MB-231 breast, in the assay on SF-539 CNS, with RPMI-8226 leukemia, in the assay on HOP-92 NSCLC and in the assay on OVCAR-8 ovarian was over 100 µM in each case. In addition, the TGI in the assay on SNB-19 CNS, with UACC-257 melanoma, with SK-MEL-28 melanoma and with KM12 colon was over 100 µM throughout.
For the compound `Nc1nc2ccccc2c2c1S(=O)(=O)c1ccc(Cl)cc1C2=O`, the GI50 in the assay with BT-549 breast is 1.91 µM; in the assay with MDA-MB-231 breast it was 1.57 µM; in the assay on SF-539 CNS, 1.3 µM; in the assay on RPMI-8226 leukemia, 0.719 µM; in the assay on HOP-92 NSCLC, 0.542 µM; with OVCAR-8 ovarian, 1.54 µM. Also, the GI50 was 2.52 µM in the assay with SNB-19 CNS, 1.96 µM in the assay with UACC-257 melanoma, 2.09 µM in the assay with SK-MEL-28 melanoma and 1.86 µM in the assay on KM12 colon. The TGI was over 50 µM with BT-549 breast; over 50 µM in the assay with MDA-MB-231 breast; 3.62 µM in the assay on SF-539 CNS; 3.31 µM with RPMI-8226 leukemia; 3.63 µM in the assay on HOP-92 NSCLC; over 50 µM in the assay on OVCAR-8 ovarian. Further, the TGI was over 50 µM with SNB-19 CNS, over 50 µM in the assay with UACC-257 melanoma, 14.1 µM in the assay on SK-MEL-28 melanoma and 13.3 µM with KM12 colon.
On to `C#CCNC(=O)NC(CCCCNC(=O)OCc1ccccc1)C(=O)OCc1ccccc1` (stereo not given), for which the TGI in the assay with BT-549 breast was over 100 µM; in the assay on MDA-MB-231 breast, over 58.7 µM; with SF-539 CNS it was 71.9 µM; with RPMI-8226 leukemia it was 70.9 µM; in the assay with HOP-92 NSCLC it was 54 µM; in the assay with OVCAR-8 ovarian, over 100 µM. In addition, the TGI with SNB-19 CNS was over 100 µM; with UACC-257 melanoma, 43.9 µM; in the assay on SK-MEL-28 melanoma it was 38.5 µM; in the assay with KM12 colon it was over 100 µM.
As for `N#Cc1cccc(Nc2ncc(-c3ccccc3)o2)c1`, the GI50 with BT-549 breast is over 20.7 µM; in the assay on MDA-MB-231 breast, 8.38 µM; with SF-539 CNS, 10.3 µM; with RPMI-8226 leukemia, over 25 µM; in the assay on HOP-92 NSCLC it was 7.32 µM; with OVCAR-8 ovarian it was 16.7 µM. The GI50 is 17.3 µM with SNB-19 CNS, over 25 µM in the assay with UACC-257 melanoma, over 20.4 µM in the assay with SK-MEL-28 melanoma and 8.18 µM in the assay with KM12 colon. In addition, the TGI in the assay on BT-549 breast, in the assay on MDA-MB-231 breast, with SF-539 CNS, in the assay on RPMI-8226 leukemia, in the assay with HOP-92 NSCLC and in the assay on OVCAR-8 ovarian was over 25 µM throughout. Besides, the TGI in the assay with SNB-19 CNS, with UACC-257 melanoma, in the assay with SK-MEL-28 melanoma and with KM12 colon was over 25 µM throughout.
For `O=c1[nH]c(=S)[nH]c(-c2ccccc2)c1Cc1c(O)ccc2ccccc12`, the TGI was 90.7 µM in the assay with BT-549 breast; over 100 µM in the assay on MDA-MB-231 breast; 82.1 µM with SF-539 CNS; 67.6 µM in the assay with RPMI-8226 leukemia; over 100 µM in the assay with HOP-92 NSCLC; over 100 µM in the assay with OVCAR-8 ovarian. Besides, the TGI with SNB-19 CNS is over 100 µM; in the assay on UACC-257 melanoma, 62.7 µM; in the assay with SK-MEL-28 melanoma, over 100 µM; with KM12 colon, over 100 µM.
On to `N#Cc1c(NC(=O)c2ccccc2F)sc2c1CCCC2`, for which the GI50 with BT-549 breast was over 20.3 µM; with MDA-MB-231 breast, over 23.5 µM; in the assay with SF-539 CNS it was over 25 µM; with RPMI-8226 leukemia it was over 25 µM; in the assay with HOP-92 NSCLC it was over 25 µM; with OVCAR-8 ovarian, over 25 µM. Moreover, the GI50 is over 25 µM with SNB-19 CNS, over 25 µM in the assay on UACC-257 melanoma, over 25 µM with SK-MEL-28 melanoma and 5.12 µM with KM12 colon. The TGI in the assay with BT-549 breast, in the assay on MDA-MB-231 breast, with SF-539 CNS, in the assay on RPMI-8226 leukemia, with HOP-92 NSCLC and in the assay with OVCAR-8 ovarian was over 25 µM each time. The TGI in the assay with SNB-19 CNS, in the assay on UACC-257 melanoma, in the assay with SK-MEL-28 melanoma and in the assay with KM12 colon was over 25 µM throughout.
As to `O=S(=O)(O)c1ccc2cc3nn(-c4ccc(/C=C/c5ccc(-n6nc7cc8ccc(S(=O)(=O)O)cc8cc7n6)cc5S(=O)(=O)O)c(S(=O)(=O)O)c4)nc3cc2c1`, the GI50 in the assay on BT-549 breast was over 100 µM; with MDA-MB-231 breast, 37 µM; in the assay with SF-539 CNS it was over 100 µM; in the assay with RPMI-8226 leukemia it was over 100 µM; with HOP-92 NSCLC it was 88.7 µM; in the assay with OVCAR-8 ovarian, over 100 µM. The GI50 with SNB-19 CNS was over 100 µM; in the assay with UACC-257 melanoma it was over 100 µM; in the assay on SK-MEL-28 melanoma it was over 100 µM; with KM12 colon, 30.4 µM. The TGI in the assay on BT-549 breast, in the assay with MDA-MB-231 breast, with SF-539 CNS, with RPMI-8226 leukemia, in the assay with HOP-92 NSCLC and with OVCAR-8 ovarian was over 100 µM throughout. In addition, the TGI with SNB-19 CNS, with UACC-257 melanoma, in the assay on SK-MEL-28 melanoma and in the assay with KM12 colon was over 100 µM each time.
As for `COc1cc(C(=O)/C=C/c2c(C(F)(F)F)nc3ccccn23)cc(OC)c1OC`, the GI50 in the assay on BT-549 breast is 1.64 µM; in the assay on MDA-MB-231 breast, 4.59 µM; in the assay with SF-539 CNS, 1.63 µM; with RPMI-8226 leukemia it was 2.91 µM; with HOP-92 NSCLC it was 2.65 µM; in the assay with OVCAR-8 ovarian it was 3.39 µM. In addition, the GI50 in the assay on SNB-19 CNS is 1.93 µM; in the assay on UACC-257 melanoma it was 2.05 µM; in the assay on SK-MEL-28 melanoma, 1.93 µM; with KM12 colon, 1.73 µM. Also, the TGI with BT-549 breast was 3.95 µM; in the assay on MDA-MB-231 breast, 19.3 µM; in the assay on SF-539 CNS, 3.22 µM; in the assay on RPMI-8226 leukemia, over 100 µM; in the assay on HOP-92 NSCLC, 9.94 µM; in the assay on OVCAR-8 ovarian, over 100 µM. Moreover, the TGI was 3.85 µM with SNB-19 CNS, 5.08 µM with UACC-257 melanoma, 3.74 µM in the assay on SK-MEL-28 melanoma and 3.64 µM in the assay on KM12 colon.

The record behind these values is PubChem BioAssay (NCI).
